Data: publication PMC8950173 (Pharmaceuticals, 2022)

What was measured:
[1] = Whole-body biodistribution derived from PET imaging; type: in vivo
Procedure: (§1) For the time of the experiments, female CD-1 mice (n = 6; 8–15 weeks; 29–43 g) were kept in a dedicated climatic chamber with free access to water and food under a 12:12 h dark:light cycle at a constant temperature (24 °C). The animals were anaesthetized (Anaesthesia Unit U-410, agntho’s, Lidingö, Sweden) with isoflurane (2.0%, 300 mL/min) delivered in a 60% oxygen/40% air mixture (Gas Blender 100 Series, MCQ instruments, Rome, Italy) and their body temperature maintained at 37 °C with a thermal bed system. For baseline studies [^18F]BA3 was injected into the tail vein (n = 2; 6.0 ± 0.6 MBq in 150 µL isotonic saline; 9.2 ± 0.7 nmol/kg; Am: 21 GBq/μmol, EOS) followed by a dynamic 60 min PET/MR scan (Mediso nanoScan®, Budapest, Hungary). Permeability-glycoprotein efflux transporter studies consisted in pre-treatment via i.v. injection of cyclosporine A (50 mg/kg in NaCl/DMSO/kolliphor, 7:1:2, v/v; n = 2) or of vehicle (NaCl/DMSO/kolliphor, 7:1:2, v/v; n = 2) 30 min prior to [^18F]BA3 (6.0 ± 0.9 MBq; 4.9 ± 0.7 nmol/kg; Am: 32–37 GBq/μmol, EOS). Each PET image was corrected for random coincidences, dead time, scatter and attenuation (AC), based on a whole body (WB) MR scan. The reconstruction parameters for the list mode data were 3D-ordered subset expectation maximization (OSEM), 4 iterations, 6 subsets, energy window: 400–600 keV, coincidence mode: 1–5, ring difference: 81. The mice were positioned prone in a special mouse bed (heated up to 37 °C), with the head fixed to a mouth piece for the anaesthetic gas supply with isoflurane in 40% air and 60% oxygen. The PET data were collected by a continuous WB scan during the entire investigation. Following the 60 min PET scan a T1 weighted WB gradient echo sequence (TR/TE: 20/6.4 ms, NEX: 1, FA: 25, FOV: 64 × 64 mm, Matrix: 128 × 128, STh: 0.5 mm) was performed for AC and anatomical orientation. […]. The respective brain regions were identified using the mouse brain atlas template Ma-Benveniste-Mirrione-FDG. The activity data are expressed as mean SUV of the overall ROI.

Radiochemical stability = type: physicochemical; conditions: room temperature, more than two hours
Procedure: (§2) Radiochemical stability of [^18F]BA3 was investigated in 0.9% NaCl solution (containing 10% EtOH) and in n-octanol at room temperature for 2 h. Samples were analysed by radio-RP-HPLC (see quality control). The LogD7.4 value of [^18F]BA3 was experimentally determined in n-octanol/phosphate-buffered saline (PBS, pH = 7.4) at room temperature by the shake-flask method as described previously. Briefly, small tracer amounts (~800 kBq) were added to a mixture of 3 mL n-octanol and 3 mL PBS. After shaking for 20 min, the samples were centrifuged (10,000 rpm, 5 min) and 1 mL aliquots of the organic as well as aqueous layer were taken and measured in a gamma counter (1480 WIZARD, Perkin Elmer, Turku, Finland). Another 1 mL aliquot of the organic layer was mixed with 2 mL n-octanol and 3 mL PBS and subjected to the same procedure until constant partition coefficient values had been obtained. The measurement was performed twice in quadruplicate.

[2] = Lipophilicity logD7.4, shake-flask method n-octanol/PBS; type: physicochemical; conditions: n-octanol/PBS pH 7.4, room temperature, n = 8
Procedure: as §2

[3] = target: T1, P-glycoprotein (P-gp) efflux transporter (Mus musculus, UniProt P21447); test: P-gp efflux transporter PET study with cyclosporine A pre-treatment; type: in vivo; conditions: for initial brain uptake: n = 2
T1 construct: from tissue; host or cells: living CD-1 mice, brain / blood-brain barrier
T1 sequence (P21447 whole entry): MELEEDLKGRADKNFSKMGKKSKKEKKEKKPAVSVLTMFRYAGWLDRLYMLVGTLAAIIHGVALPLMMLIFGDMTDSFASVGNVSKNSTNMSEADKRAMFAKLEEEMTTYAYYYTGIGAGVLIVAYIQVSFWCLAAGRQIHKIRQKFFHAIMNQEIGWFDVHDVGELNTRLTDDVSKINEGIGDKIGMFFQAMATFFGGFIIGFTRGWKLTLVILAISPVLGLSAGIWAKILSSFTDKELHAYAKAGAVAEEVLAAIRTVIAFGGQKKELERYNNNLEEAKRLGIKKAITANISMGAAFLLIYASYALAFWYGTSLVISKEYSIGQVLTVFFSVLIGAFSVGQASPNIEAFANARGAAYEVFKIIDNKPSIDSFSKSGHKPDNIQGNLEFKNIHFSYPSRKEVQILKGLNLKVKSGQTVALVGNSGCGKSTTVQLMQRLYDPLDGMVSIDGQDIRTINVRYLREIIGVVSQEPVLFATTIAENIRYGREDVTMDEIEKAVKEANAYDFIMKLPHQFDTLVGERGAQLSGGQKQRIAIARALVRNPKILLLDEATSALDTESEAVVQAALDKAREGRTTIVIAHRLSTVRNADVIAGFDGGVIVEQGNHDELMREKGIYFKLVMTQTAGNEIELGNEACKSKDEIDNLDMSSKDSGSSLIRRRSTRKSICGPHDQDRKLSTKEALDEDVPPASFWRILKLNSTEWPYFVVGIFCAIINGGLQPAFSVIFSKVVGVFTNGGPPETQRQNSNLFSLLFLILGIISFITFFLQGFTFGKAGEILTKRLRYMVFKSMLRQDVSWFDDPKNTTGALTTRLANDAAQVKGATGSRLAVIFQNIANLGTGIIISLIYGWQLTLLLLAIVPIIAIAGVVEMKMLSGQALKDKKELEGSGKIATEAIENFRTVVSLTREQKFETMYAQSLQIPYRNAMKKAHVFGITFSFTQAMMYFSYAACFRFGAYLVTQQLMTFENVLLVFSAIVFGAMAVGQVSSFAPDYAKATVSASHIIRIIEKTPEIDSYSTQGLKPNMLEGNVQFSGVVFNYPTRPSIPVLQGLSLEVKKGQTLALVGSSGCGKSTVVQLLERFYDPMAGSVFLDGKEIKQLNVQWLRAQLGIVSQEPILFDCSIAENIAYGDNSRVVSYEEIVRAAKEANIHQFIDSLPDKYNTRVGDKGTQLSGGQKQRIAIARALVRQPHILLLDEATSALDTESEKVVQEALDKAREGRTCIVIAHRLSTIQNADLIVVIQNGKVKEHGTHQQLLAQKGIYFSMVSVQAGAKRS
Procedure: as §1

CC([18F])C(=O)NCc1ccc(C(=O)Nc2cc(-c3ccsc3)ccc2N)cc1 (stereo not shown) [[^18F]BA3]
activity in blood circulation SUV5 min ([1]; blood, 5 min): 1.47 SUV | activity in blood circulation SUV60 min ([1]; blood, 60 min): 1.10 SUV | initial uptake SUV5 min ([1]; spleen, kidney, muscle, liver and small intestines, 5 min): < 4 SUV | radiochemical purity (stability) (Radiochemical stability; in n-octanol): > 99% | radiochemical purity (stability) (Radiochemical stability; in saline formulation containing 10% EtOH): > 99% | logD [2]: 1.75 ± 0.16 | P-gp substrate status ([3]; concluded from cyclosporine A pre-administration): substrate of P-gp | increase of initial brain uptake by cyclosporine A ([3]; cyclosporine A vs vehicle pre-administration): about factor two | initial brain uptake ([3]; pre-administration of cyclosporine A 50 mg/kg i.v. 30 min before tracer): 0.42 SUV | initial brain uptake ([3]; pre-administration of vehicle 30 min before tracer): 0.18 SUV
